From ChEMBL document CHEMBL5107966, “Cascade synthetic strategies opening access to medicinal-relevant aliphatic 3- and 4-membered N-heterocyclic scaffolds” (Eur J Med Chem, 2022)
Values after ≈ are worked out from the molar mass of the structure shown.

Experiments:
Staphylococcus aureus [1] = experiment: Antimicrobial activity against Staphylococcus aureus incubated for 18 to 24 hrs; format: functional; conditions: time 18-24 hrs
Enterobacter cloacae = experiment: Antimicrobial activity against Enterobacter cloacae incubated for 18 to 24 hrs; format: functional; conditions: time 18-24 hrs
Enterococcus faecium = experiment: Antimicrobial activity against Enterococcus faecium incubated for 18 to 24 hrs; format: functional; conditions: time 18-24 hrs
Pseudomonas aeruginosa [2] = experiment: Antimicrobial activity against Pseudomonas aeruginosa incubated for 18 to 24 hrs; format: functional; conditions: time 18-24 hrs
HepG2 = experiment: Antiproliferative activity against human HepG2 cells assessed as reduction in cell viability incubated for 72 hrs by CCK-8 assay; format: functional, cell-based; conditions: HepG2, 72 h
A-431 = experiment: Antiproliferative activity against human A-431 cells assessed as reduction in cell viability incubated for 72 hrs by CCK-8 assay; format: functional, cell-based; conditions: A-431, 72 h
U-251 = experiment: Antiproliferative activity against human U-251 cells assessed as reduction in cell viability incubated for 72 hrs by CCK-8 assay; format: functional, cell-based; conditions: U-251, 72 h
HCT-116 [3] = experiment: cells; conditions: Homo sapiens, HCT-116, 72 h
Aspergillus niger = experiment: Antimicrobial activity against Aspergillus niger […]; format: functional
Candida albicans = experiment: Antimicrobial activity against Candida albicans NCIM 2087; format: functional
Aspergillus fumigatus = experiment: Antimicrobial activity against Aspergillus fumigatus NCIM 2081; format: functional
HCT-116 [4] = experiment: Cytotoxicity against human HCT-116 cells assessed as cell viability incubated for 24 hrs by MTT assay; format: functional, cell-based; conditions: HCT-116, 24 h
Escherichia coli = experiment: Antimicrobial activity against Escherichia coli ATCC 8739; format: functional
Pseudomonas aeruginosa [5] = experiment: Antimicrobial activity against Pseudomonas aeruginosa MCCB 0035; format: functional
Staphylococcus aureus [6] = experiment: Antimicrobial activity against Staphylococcus aureus ATCC 29213; format: functional
RAW264.7 [7] = experiment: Inhibition of NO release in mouse RAW264.7 incubated for 15 mins by fluoroscence-luminescence reader infinite M200 Pro analysis; format: functional, cell-based; conditions: RAW264.7, 0.25 h
RAW264.7 [8] = experiment: Cytotoxicity against mouse RAW264.7 by WST-1 vital dye reagent method; format: functional, cell-based
A2780 = experiment: Cytotoxicity against human A2780 cells; format: functional, cell-based
A549 = experiment: Cytotoxicity against human A549 cells
HeLa = experiment: Cytotoxicity against human HeLa cells
HCT-116 [9] = experiment: Cytotoxicity against human HCT-116 cells; format: functional, cell-based

Q: With `Cc1ccc(C(OC(=O)C2N=C2c2ccccc2Br)C(=O)NC(C)(C)C)cc1` (configuration not stated) as the compound, how does the MIC (Staphylococcus aureus [1]) read?
A: 16 µg/mL (≈ 36.1 µM)

Q: What about the MIC (Enterobacter cloacae) of the same compound?
A: 75 µg/mL (≈ 169 µM)

Q: And the MIC (Enterococcus faecium)?
A: 16 µg/mL (≈ 36.1 µM)

Q: What about the MIC (Pseudomonas aeruginosa [2]) of the same compound?
A: 150 µg/mL (≈ 338 µM)

Q: `COc1cc(-c2cc(C3CN(c4cccc(C#N)n4)C3)ccc2OC)ccn1` was tested. Which EC50 (HepG2) did it give?
A: 0.46 µM

Q: And the EC50 (A-431)?
A: 0.7 µM

Q: What about the EC50 (U-251) of the same compound?
A: 1.2 µM

Q: And the EC50 (HCT-116 [3])?
A: 15 µM

Q: How did the MIC (Aspergillus niger) turn out when `Clc1ccccc1C(c1ccccc1)(c1ccccc1)n1ccnc1` [CLOTRIMAZOLE] was run?
A: 16 µg/mL (≈ 46.4 µM)

Q: What about the MIC (Candida albicans) of the same compound?
A: 4 µg/mL (≈ 11.6 µM)

Q: What about the MIC (Aspergillus fumigatus) of the same compound?
A: 1 µg/mL (≈ 2.9 µM)

Q: With `CCOP(=O)(O)C1CN1C(C)c1ccc2ccccc2c1` (configuration not stated) as the compound, how does the IC50 (HCT-116 [4]) read?
A: 12.3 µM

Q: For `Cc1ccc(S(=O)(=O)N2C(=O)C(Cl)[C@H]2c2ccc(F)cc2)cc1` (some centres not stated), which MIC (Escherichia coli) is on record?
A: 0.5 µg/mL (≈ 1.41 µM)

Q: What about the MIC (Pseudomonas aeruginosa [5]) of the same compound?
A: 4 µg/mL (≈ 11.3 µM)

Q: What about the MIC (Aspergillus niger) of the same compound?
A: 8 µg/mL (≈ 22.6 µM)

Q: And the MIC (Candida albicans)?
A: 2 µg/mL (≈ 5.65 µM)

Q: What about the MIC (Staphylococcus aureus [6]) of the same compound?
A: 1 µg/mL (≈ 2.83 µM)

Q: What about the MIC (Aspergillus fumigatus) of the same compound?
A: 2 µg/mL (≈ 5.65 µM)

Q: With `O=C(O)C1N=C1c1ccccc1` (configuration not stated) as the compound, how does the MIC (Staphylococcus aureus [1]) read?
A: 9 µg/mL (≈ 55.8 µM)

Q: And the MIC (Enterobacter cloacae)?
A: 9 µg/mL (≈ 55.8 µM)

Q: And the MIC (Enterococcus faecium)?
A: 9 µg/mL (≈ 55.8 µM)

Q: And the MIC (Pseudomonas aeruginosa [2])?
A: 9 µg/mL (≈ 55.8 µM)

Q: How did the MIC (Staphylococcus aureus [1]) turn out when `Cc1cc(NS(=O)(=O)c2ccc(N)cc2)no1` [SULFAMETHOXAZOLE] was run?
A: 16 µg/mL (≈ 63.2 µM)

Q: What about the MIC (Enterobacter cloacae) of the same compound?
A: 8 µg/mL (≈ 31.6 µM)

Q: And the MIC (Enterococcus faecium)?
A: 4 µg/mL (≈ 15.8 µM)

Q: And the MIC (Pseudomonas aeruginosa [2])?
A: 8 µg/mL (≈ 31.6 µM)

Q: With `Cc1ccc(S(=O)(=O)N2C(=O)C(Cl)[C@H]2c2ccccc2F)cc1` (some centres not stated) as the compound, how does the MIC (Escherichia coli) read?
A: 4 µg/mL (≈ 11.3 µM)

Q: And the MIC (Pseudomonas aeruginosa [5])?
A: 32 µg/mL (≈ 90.4 µM)

Q: What about the MIC (Aspergillus niger) of the same compound?
A: 16 µg/mL (≈ 45.2 µM)

Q: What about the MIC (Candida albicans) of the same compound?
A: 16 µg/mL (≈ 45.2 µM)

Q: And the MIC (Staphylococcus aureus [6])?
A: 4 µg/mL (≈ 11.3 µM)

Q: And the MIC (Aspergillus fumigatus)?
A: 4 µg/mL (≈ 11.3 µM)

Q: Which IC50 (RAW264.7 [7]) does the source give for `O=C1[C@@H](Oc2ccc(Cl)cc2)[C@@H](c2ccccc2[N+](=O)[O-])N1N1CCOCC1` here?
A: 7.92 µM

Q: And the IC50 (RAW264.7 [8])?
A: > 500 µM

Q: How did the IC50 (HCT-116 [4]) turn out when `CCOP(=O)(O)C1CN1C1CCCCC1` (configuration not stated) was run?
A: 16.1 µM

Q: How did the IC50 (HCT-116 [4]) turn out when `COc1cc([C@@H]2c3cc4c(cc3[C@@H](O[C@@H]3O[C@@H]5CO[C@@H](C)O[C@H]5[C@H](O)[C@H]3O)[C@H]3COC(=O)[C@H]23)OCO4)cc(OC)c1O` [ETOPOSIDE] was run?
A: 26.1 µM

Q: Which IC50 (RAW264.7 [7]) does the source give for `Nc1cccc([C@@H]2[C@H](Oc3ccc4ccccc4c3)C(=O)N2CCCN2CCOCC2)c1` here?
A: 5.73 µM

Q: What about the IC50 (RAW264.7 [8]) of the same compound?
A: > 500 µM

Q: With `CCOP(=O)(O)C1CN1Cc1ccccc1` (configuration not stated) as the compound, how does the IC50 (HCT-116 [4]) read?
A: 7.79 µM

Q: Which results are given for `Cc1ccc(S(=O)(=O)N2C(=O)C(Cl)[C@H]2c2cccc(F)c2)cc1` (some centres not stated)?
A: MIC (Escherichia coli): 2 µg/mL (≈ 5.65 µM); MIC (Pseudomonas aeruginosa [5]): 16 µg/mL (≈ 45.2 µM); MIC (Aspergillus niger): 16 µg/mL (≈ 45.2 µM); MIC (Candida albicans): 8 µg/mL (≈ 22.6 µM); MIC (Staphylococcus aureus [6]): 8 µg/mL (≈ 22.6 µM); MIC (Aspergillus fumigatus): 16 µg/mL (≈ 45.2 µM)

Q: What does the source list for `COc1cccc2c1C(=O)c1c(O)c3c(c(O)c1C2=O)C[C@@](O)(C(=O)CO)C[C@@H]3O[C@H]1C[C@H](N)[C@H](O)[C@H](C)O1` [DOXORUBICIN]?
A: EC50 (HepG2): 0.67 µM; EC50 (A-431): 0.7 µM; EC50 (U-251): 0.07 µM; EC50 (HCT-116 [3]): 0.16 µM

Q: Which IC50 (HCT-116 [4]) does the source give for `CC[C@@]1(O)C(=O)OCc2c1cc1n(c2=O)Cc2cc3ccccc3nc2-1` [CAMPTOTHECIN] here?
A: 0.00201 µM

Q: With `COc1ccc(C2CN(c3cccc(C#N)n3)C2)cc1-c1ccnc(N)c1` as the compound, how does the EC50 (HepG2) read?
A: 5.66 µM

Q: And the EC50 (U-251)?
A: 0.03 µM

Q: And the EC50 (HCT-116 [3])?
A: 0.36 µM

Q: What does the source list for `CC1(C)S[C@@H]2[C@H](NC(=O)[C@H](N)c3ccccc3)C(=O)N2[C@H]1C(=O)O` [AMPICILLIN]?
A: MIC (Escherichia coli): 1 µg/mL (≈ 2.86 µM); MIC (Pseudomonas aeruginosa [5]): 4 µg/mL (≈ 11.4 µM); MIC (Staphylococcus aureus [6]): 2 µg/mL (≈ 5.72 µM)

Q: `COc1ccc(C2NC2c2cc(OC)c(OC)c(OC)c2)cc1` (configuration not stated) was tested. Which IC50 (A2780) did it give?
A: 4.68 µM

Q: And the IC50 (A549)?
A: 8.74 µM

Q: And the IC50 (HeLa)?
A: 4.93 µM

Q: What about the IC50 (HCT-116 [9]) of the same compound?
A: 5.44 µM

Q: With `O=C1[C@@H](Oc2ccc(Cl)cc2Cl)[C@@H](c2ccc([N+](=O)[O-])cc2)N1CCCN1CCOCC1` as the compound, how does the IC50 (RAW264.7 [7]) read?
A: 4.14 µM

Q: And the IC50 (RAW264.7 [8])?
A: 291 µM
